Earlier results, collected in patent US20250161231A1, “LUTEIN FOR USE IN INHIBITING MAST CELL DEGRANULATION” (N.V. NUTRICIA, priority 2022, published 2025).

System: human mast cells
Details: literature, Int Arch Allergy Immunol 113, 335-336, 1997

## CC1=C(/C=C/C(C)=C/C=C/C(C)=C/C=C/C=C(C)/C=C/C=C(C)/C=C/C2=C(C)CCCC2(C)C)C(C)(C)CCC1 [beta-carotene]
  inhibition of histamine release from human mast cells: dose-dependent inhibition
